Assay results as given in ChEMBL document CHEMBL3046062, “Anti-HIV, antimycobacterial and antimicrobial studies of newly synthesized 1,2,4-triazole clubbed benzothiazoles” (Med Chem Res, 2013).
Values after ≈ are worked out from the molar mass of the structure shown.

Tests used:
Candida albicans = test: Antifungal activity against Candida albicans MTCC 227 after overnight incubation by broth microdilution method; assay type: functional
Aspergillus niger = test: Antifungal activity against Aspergillus niger MTCC 282 after overnight incubation by broth microdilution method; assay type: functional
Streptococcus pyogenes = test: Antibacterial activity against Streptococcus pyogenes MTCC 443 after overnight incubation by broth microdilution method; assay type: functional
[1] = Selectivity index, ratio of CC50 for human MT4 cells to IC50 for HIV2 ROD; assay type: functional
Pseudomonas aeruginosa = test: Antibacterial activity against Pseudomonas aeruginosa MTCC 2488 after overnight incubation by broth microdilution method; assay type: functional
[2] = system: Human immunodeficiency virus 2; test: Antiviral activity against Human immunodeficiency virus type 2 (ISOLATE ROD) infected MT4 cells assessed as inhibition of virus-induced cytopathogenicity after 5 days by MTT assay; assay type: functional, organism-based; settings: Human immunodeficiency virus 2, ISOLATE ROD, MT4, 120 h
[3] = system: Human immunodeficiency virus 1; test: Antiviral activity against Human immunodeficiency virus 1 IIIB infected MT4 cells assessed as inhibition of virus-induced cytopathogenicity after 5 days by MTT assay; assay type: functional, organism-based; settings: MT4, 120 h
Escherichia coli = test: Antibacterial activity against Escherichia coli MTCC 442 after overnight incubation by broth microdilution method; assay type: functional
Aspergillus clavatus = test: Antifungal activity against Aspergillus clavatus MTCC 323 after overnight incubation by broth microdilution method; assay type: functional
[4] = system: Mycobacterium tuberculosis; test: Growth inhibition of Mycobacterium tuberculosis H37Rv at MIC after 28 days by Lowenstein-Jensen agar method; assay type: functional
Staphylococcus aureus = test: Antibacterial activity against Staphylococcus aureus MTCC 96 after overnight incubation by broth microdilution method; assay type: functional
[5] = Selectivity index, ratio of CC50 for human MT4 cells to IC50 for HIV1 3B; assay type: functional
[6] = system: Mycobacterium tuberculosis; test: Antitubercular activity against Mycobacterium tuberculosis H37Rv after 28 days by Lowenstein-Jensen agar method; assay type: functional; settings: 672 h
[7] = Cytotoxicity against Homo sapiens (human) MT4 cells after 5 days by MTT assay; assay type: cell-based

| Compound | MIC99 (Candida albicans) | MIC99 (Aspergillus niger) | MIC99 (Streptococcus pyogenes) | Ratio CC50/IC50 [1] | MIC99 (Pseudomonas aeruginosa) | IC50 [2] | IC50 [3] | MIC99 (Escherichia coli) | MIC99 (Aspergillus clavatus) | growth inhibition (GI) [4] | MIC99 (Staphylococcus aureus) | Ratio CC50/IC50 [5] | MIC [6] | CC50 at 120 h [7] |
| --- | --- | --- | --- | --- | --- | --- | --- | --- | --- | --- | --- | --- | --- | --- |
| Clc1ccc(-c2nnc(-c3cccnc3)n2Nc2nc3c(Cl)cccc3s2)cc1 | 200 µg/mL (≈ 455 µM) | 500 µg/mL (≈ 1140 µM) | 500 µg/mL (≈ 1140 µM) | <1 | 62.5 µg/mL (≈ 142 µM) | > 27.2 µg/mL | > 27.2 µg/mL | 100 µg/mL (≈ 228 µM) | 500 µg/mL (≈ 1140 µM) | 98% | 250 µg/mL (≈ 569 µM) | <1 | 12.5 µg/mL (≈ 28.5 µM) | 27.2 µg/mL (≈ 61.8 µM) |
| Clc1ccc(-c2nnc(-c3cccnc3)o2)cc1 | 500 µg/mL (≈ 1940 µM) | 1000 µg/mL (≈ 3880 µM) | 250 µg/mL (≈ 970 µM) | <1 | 500 µg/mL (≈ 1940 µM) | > 4.49 µg/mL | > 4.49 µg/mL | 500 µg/mL (≈ 1940 µM) | 1000 µg/mL (≈ 3880 µM) | 98% | 200 µg/mL (≈ 776 µM) | <1 | 500 µg/mL (≈ 1940 µM) | 4.49 µg/mL (≈ 17.4 µM) |
| COc1ccc2nc(Nn3c(-c4ccc(Cl)cc4)nnc3-c3cccnc3)sc2c1 | 250 µg/mL (≈ 575 µM) | 500 µg/mL (≈ 1150 µM) | 500 µg/mL (≈ 1150 µM) | <1 | 250 µg/mL (≈ 575 µM) | > 66.8 µg/mL | > 66.8 µg/mL | 500 µg/mL (≈ 1150 µM) | 500 µg/mL (≈ 1150 µM) | 98% | 500 µg/mL (≈ 1150 µM) | <1 | 500 µg/mL (≈ 1150 µM) | 66.8 µg/mL (≈ 154 µM) |
